Laboratory results reported in patent US11447503B2, “Pyridine carbamates and their use as GLUN2B receptor modulators” (JANSSEN PHARMACEUTICA NV, priority 2019, dated 2022).

molecular target: human GluN1/GluN2B NMDA receptors (Homo sapiens, UniProt Q05586+Q13224); assay: Cell-based calcium flux (FLIPR) assay on cloned human GluN1/GluN2B ion channels expressed in mammalian cells; settings: standard assay; glutamate ~EC40, 10 μM glycine; stable Tet-On cell line
Experimental: 5.3. Biological Assays: Effect of Compounds of Formula (I) on Cloned Human GluN1/GluN2B Ion Channels Expressed in Mammalian Cells
NMDA receptors are ion channels that are highly permeable to Ca^2+ ions, rendering it possible to monitor NMDA receptor function using cell-based calcium flux assay. In this assay, co-agonists glutamate and glycine are added to cells heterologously expressing human GluN1/GluN2B NMDA receptors to initiate cellular Ca^2+ influx. The time course of the changes in intracellular calcium is measured using a fluorescent dye and a FLIPR (Fluorometric Imaging Plate Reader) device.
Twenty four hours before measurements, the expression of the NMDA receptors in the stable cell line is induced with Tet-On inducible system in the presence of a non-selective NMDA receptor blocker. On the day of the experiment, cell culture media is carefully washed and the cells are loaded with Calcium 5 Dye Kit (Molecular Devices) in dye loading buffer containing 137 mM NaCl, 4 mM KCl, 2 mM CaCl2, 0.5 mM MgCl2 (standard assay) or 1.5 mM MgCl2 (HTS assay), 10 mM HEPES and 5 mM D-glucose; pH 7.4. After 1 h incubation at the room temperature, the dye is washed away with the assay buffer (137 mM NaCl (standard assay) or 150 mM (HTS assay), 4 mM KCl (standard assay) or 3 mM (HTS assay), 2 mM CaCl2, 0.01 mM EDTA, 10 mM HEPES and 5 mM D-glucose; pH 7.4) In the FLIPR TETRA reader, various concentrations of the test compounds are added to the cells for 5 min while fluorescence is monitored to detect potential agonist activity. Next, co-agonists, glutamate and glycine are added for another 5 minutes. The concentration of glutamate corresponding to ˜EC40 (standard assay) or EC40 (HTS assay) is used to maximize the assay's signal window and ability to detect NMDA receptor antagonists and negative allosteric modulators. A saturating concentration (10 μM) of glycine is also present in the assay. A non-selective NMDA receptor antagonist, (+)MK-801 is used as a positive control for antagonist activity. The fluorescent signal in the presence of test compounds is quantified and normalized to the signal defined by the appropriate control wells.

human GluN1/GluN2B NMDA receptors, sequence (Q13224 27-1484, other chains not shown): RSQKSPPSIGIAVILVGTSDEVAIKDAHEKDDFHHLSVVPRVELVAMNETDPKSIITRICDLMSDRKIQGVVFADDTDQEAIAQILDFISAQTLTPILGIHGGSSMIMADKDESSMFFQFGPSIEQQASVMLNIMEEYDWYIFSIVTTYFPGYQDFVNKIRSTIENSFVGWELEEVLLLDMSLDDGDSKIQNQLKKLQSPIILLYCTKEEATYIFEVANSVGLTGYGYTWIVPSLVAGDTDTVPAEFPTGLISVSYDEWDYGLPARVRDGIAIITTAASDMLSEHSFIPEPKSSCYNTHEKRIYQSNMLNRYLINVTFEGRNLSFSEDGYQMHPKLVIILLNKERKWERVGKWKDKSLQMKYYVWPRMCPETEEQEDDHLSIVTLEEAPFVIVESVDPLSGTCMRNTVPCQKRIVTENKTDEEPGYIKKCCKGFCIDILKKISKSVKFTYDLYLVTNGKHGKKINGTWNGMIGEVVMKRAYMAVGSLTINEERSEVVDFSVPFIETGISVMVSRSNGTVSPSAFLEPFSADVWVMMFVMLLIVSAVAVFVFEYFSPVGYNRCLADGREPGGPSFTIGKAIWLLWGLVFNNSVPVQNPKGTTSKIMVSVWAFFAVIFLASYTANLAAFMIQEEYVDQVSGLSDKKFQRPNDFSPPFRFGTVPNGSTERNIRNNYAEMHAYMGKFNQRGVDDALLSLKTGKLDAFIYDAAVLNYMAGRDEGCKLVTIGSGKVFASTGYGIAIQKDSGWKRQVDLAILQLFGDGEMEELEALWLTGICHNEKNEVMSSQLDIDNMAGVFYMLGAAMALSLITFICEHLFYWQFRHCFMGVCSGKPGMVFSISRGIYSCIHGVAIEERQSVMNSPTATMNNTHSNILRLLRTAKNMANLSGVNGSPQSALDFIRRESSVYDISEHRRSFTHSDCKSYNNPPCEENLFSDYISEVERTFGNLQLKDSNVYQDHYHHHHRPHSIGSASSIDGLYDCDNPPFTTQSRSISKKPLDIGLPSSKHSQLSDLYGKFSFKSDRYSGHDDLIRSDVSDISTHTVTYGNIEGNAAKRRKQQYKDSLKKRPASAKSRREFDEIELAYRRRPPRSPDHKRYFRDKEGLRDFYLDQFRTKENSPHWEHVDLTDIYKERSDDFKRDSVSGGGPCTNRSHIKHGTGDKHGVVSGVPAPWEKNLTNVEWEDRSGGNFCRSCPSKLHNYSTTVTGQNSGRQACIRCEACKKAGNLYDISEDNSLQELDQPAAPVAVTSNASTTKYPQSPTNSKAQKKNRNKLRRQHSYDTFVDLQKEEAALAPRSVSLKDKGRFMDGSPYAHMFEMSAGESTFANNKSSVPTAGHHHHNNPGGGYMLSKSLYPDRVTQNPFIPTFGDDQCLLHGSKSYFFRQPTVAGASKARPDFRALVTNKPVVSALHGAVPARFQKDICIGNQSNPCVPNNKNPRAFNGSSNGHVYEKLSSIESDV

Q: With `Cc1ncc(-c2cccc(C(F)F)c2)cc1CN1CCCOC1=O` [Example 62, 3-[[5-[3-(Difluoromethyl)phenyl]-2-methyl-3-pyridyl]methyl]-1,3-oxazinan-2-one] as the compound, how does the IC50 read?
A: Its IC50 is 128 nM.

Q: For `COc1ncc(-c2cc(F)c(F)c(F)c2)cc1CN1CCOC1=O` [Example 102, 3-[[2-Methoxy-5-(3,4,5-trifluorophenyl)-3-pyridyl]methyl]oxazolidin-2-one], which IC50 is on record?
A: The IC50 was 172 nM.

Q: How did the IC50 turn out when `Cc1ncc(-c2ccc(F)c(OC(F)F)c2)cc1CN1CCOC1=O` [Example 79, 3-[[5-[3-(Difluoromethoxy)-4-fluoro-phenyl]-2-methyl-3-pyridyl]methyl] oxazolidin-2-one] was run?
A: Its IC50 is 10 nM.

Q: With `O=C1OCc2ccccc2N1Cc1cncc(-c2ccc(F)c(OC(F)F)c2)c1` [Example 4, 1-[[5-[3-(Difluoromethoxy)-4-fluoro-phenyl]-3-pyridyl]methyl]-4H-3,1-benzoxazin-2-one] as the compound, how does the IC50 read?
A: Its IC50 is 123 nM.

Q: With `Cc1ncc(-c2ccc(F)c(OC(F)F)c2)cc1CN1CCCOC1=O` [Example 88, 3-[[5-[3-(Difluoromethoxy)-4-fluoro-phenyl]-2-methyl-3-pyridyl]methyl]-1,3-oxazinan-2-one] as the compound, how does the IC50 read?
A: Its IC50 is 22 nM.

Q: `C[C@@H]1CN(Cc2cncc(-c3ccc(F)c(C(F)F)c3)c2)C(=O)O1` [Example 33, (5R)-3-[[5-[3-(Difluoromethyl)-4-fluoro-phenyl]-3-pyridyl]methyl]-5-methyl-oxazolidin-2-one] was tested. Which IC50 did it give?
A: Its IC50 is 16 nM.

Q: With `Cc1ncc(-c2ccc(F)c(OC(F)F)c2)cc1CN1CC(C)OC1=O` (stereo in doubt) [Example 86, (5R)-3-[[5-[3-(Difluoromethoxy)-4-fluoro-phenyl]-2-methyl-3-pyridyl]methyl]-5-methyl-oxazolidin-2-one] as the compound, how does the IC50 read?
A: Its IC50 is 20 nM.

Q: How did the IC50 turn out when `O=C1OC2(CC2)CN1Cc1cncc(-c2ccc(F)c(OC(F)F)c2)c1` [Example 9, 5-[[5-[3-(Difluoromethoxy)-4-fluoro-phenyl]-3-pyridyl]methyl]-7-oxa-5-azaspiro[2.4]heptan-6-one] was run?
A: Its IC50 is 12 nM.

Q: For `COc1ncc(-c2ccc(F)c(OC(F)F)c2)cc1CN1C(=O)OC[C@H]1C` [Example 118, (4R)-3-[[5-[3-(Difluoromethoxy)-4-fluoro-phenyl]-2-methoxy-3-pyridyl]methyl]-4-methyl-oxazolidin-2-one], which IC50 is on record?
A: Its IC50 is 26 nM.

Q: `COc1ncc(-c2cccc(C)c2)cc1CN1CCOC1=O` [Example 105, 3-[[2-Methoxy-5-(m-tolyl)-3-pyridyl]methyl]oxazolidin-2-one] was tested. Which IC50 did it give?
A: Its IC50 is 434 nM.

Q: How did the IC50 turn out when `Cc1ncc(-c2ccc(F)c(Cl)c2)cc1CN1CCCOC1=O` [Example 65, 3-[[5-(3-Chloro-4-fluoro-phenyl)-2-methyl-3-pyridyl]methyl]-1,3-oxazinan-2-one] was run?
A: Its IC50 is 30 nM.

Q: `O=C1OCCN1Cc1cc(-c2ccc(F)c(C(F)F)c2)cnc1OC(F)F` [Example 131, 3-[[2-(Difluoromethoxy)-5-[3-(difluoromethyl)-4-fluoro-phenyl]-3-pyridyl]methyl]oxazolidin-2-one] was tested. Which IC50 did it give?
A: Its IC50 is 153 nM.

Q: With `CC1COC(=O)N1Cc1cncc(-c2ccc(F)c(OC(F)F)c2)c1` (racemic) [Example 5, (R/S)-3-[[5-[3-(Difluoromethoxy)-4-fluoro-phenyl]-3-pyridyl]methyl]-4-methyl-oxazolidin-2-one] as the compound, how does the IC50 read?
A: Its IC50 is 20 nM.

Q: `Cc1ncc(-c2ccc(F)c(C(C)(F)F)c2)cc1CN1CCOC1=O` [Example 78, 3-[[5-[3-(1,1-Difluoroethyl)-4-fluoro-phenyl]-2-methyl-3-pyridyl]methyl]oxazolidin-2-one] was tested. Which IC50 did it give?
A: Its IC50 is 32 nM.

Q: Which IC50 does the source give for `CC(C)C1CN(Cc2cncc(-c3ccc(F)c(OC(F)F)c3)c2)C(=O)O1` (single isomer, unassigned) [Example 15, (R*)-3-[[5-[3-(Difluoromethoxy)-4-fluoro-phenyl]-3-pyridyl]methyl]-5-isopropyl-oxazolidin-2-one] here?
A: The IC50 was 45 nM.

Q: With `Cc1ncc(-c2ccc(F)c(C)c2F)cc1CN1CCOC1=O` [Example 77, 3-[[5-(2,4-Difluoro-3-methyl-phenyl)-2-methyl-3-pyridyl]methyl]oxazolidin-2-one] as the compound, how does the IC50 read?
A: Its IC50 is 13 nM.

Q: Which IC50 does the source give for `CC(C)[C@H]1COC(=O)N1Cc1cncc(-c2ccc(F)c(OC(F)F)c2)c1` [Example 3, (4S)-3-[[5-[3-(Difluoromethoxy)-4-fluoro-phenyl]-3-pyridyl]methyl]-4-isopropyl-oxazolidin-2-one] here?
A: The IC50 was 3010 nM.

Q: For `COc1ncc(-c2ccc(F)c(OC(F)(F)F)c2)cc1CN1CCOC1=O` [Example 113, 3-[[5-[4-Fluoro-3-(trifluoromethoxy)phenyl]-2-methoxy-3-pyridyl]methyl]oxazolidin-2-one], which IC50 is on record?
A: The IC50 was 13 nM.

Q: For `COc1ncc(-c2ccc(F)c(OC(F)F)c2)cc1CN1CCOC1=O` [Example 119, 3-[[5-[3-(Difluoromethoxy)-4-fluoro-phenyl]-2-methoxy-3-pyridyl]methyl]oxazolidin-2-one], which IC50 is on record?
A: Its IC50 is 12 nM.

Q: Which IC50 does the source give for `COc1ncc(-c2cc(C)c(F)c(F)c2)cc1CN1CCOC1=O` [Example 112, 3-[[5-(3,4-Difluoro-5-methyl-phenyl)-2-methoxy-3-pyridyl]methyl] oxazolidin-2-one] here?
A: The IC50 was 18 nM.

Q: `CC(C)C1CN(Cc2cncc(-c3ccc(F)c(C(F)F)c3)c2)C(=O)O1` (single isomer, unassigned) [Example 36, (R*)-3-[[5-[3-(Difluoromethyl)-4-fluoro-phenyl]-3-pyridyl]methyl]-5-isopropyl-oxazolidin-2-one] was tested. Which IC50 did it give?
A: Its IC50 is 31 nM.

Q: `O=C1OCCCN1Cc1cc(-c2ccc(Cl)c(OC(F)F)c2)cnc1C(F)F` [Example 129, 3-[[5-[4-Chloro-3-(difluoromethoxy)phenyl]-2-(difluoromethyl)-3-pyridyl]methyl]-1,3-oxazinan-2-one] was tested. Which IC50 did it give?
A: Its IC50 is 59 nM.

Q: How did the IC50 turn out when `CC(F)(F)c1ncc(-c2ccc(F)c(C(F)F)c2)cc1CN1CCOC1=O` [Example 135, 3-[[2-(1,1-Difluoroethyl)-5-[3-(difluoromethyl)-4-fluoro-phenyl]-3-pyridyl]methyl]oxazolidin-2-one] was run?
A: Its IC50 is 47 nM.

Q: With `CC1(C)CCN(Cc2cncc(-c3ccc(F)c(OC(F)F)c3)c2)C(=O)O1` [Example 10, 3-[[5-[3-(Difluoromethoxy)-4-fluoro-phenyl]-3-pyridyl]methyl]-6,6-dimethyl-1,3-oxazinan-2-one] as the compound, how does the IC50 read?
A: Its IC50 is 521 nM.

Q: Which IC50 does the source give for `C[C@H]1CN(Cc2cc(-c3ccc(F)c(C(F)F)c3)cnc2C(C)(F)F)C(=O)O1` [Example 140, (5S)-3-[[2-(1,1-Difluoroethyl)-5-[3-(difluoromethyl)-4-fluoro-phenyl]-3-pyridyl]methyl]-5-methyl-oxazolidin-2-one] here?
A: The IC50 was 111 nM.

Q: With `C[C@@H]1COC(=O)N1Cc1cc(-c2ccc(F)c(C(F)F)c2)cnc1OC(F)F` [Example 132, (4R)-3-[[2-(Difluoromethoxy)-5-[3-(difluoromethyl)-4-fluoro-phenyl]-3-pyridyl]methyl]-4-methyl-oxazolidin-2-one] as the compound, how does the IC50 read?
A: The IC50 was 176 nM.

Q: For `CC(c1cncc(-c2ccc(F)c(C(F)F)c2)c1)N1CCCOC1=O` (racemic) [Example 61, (R/S)-3-[1-[5-[3-(difluoromethyl)-4-fluoro-phenyl]-3-pyridyl]ethyl]-1,3-oxazinan-2-one], which IC50 is on record?
A: Its IC50 is 323 nM.

Q: Which IC50 does the source give for `CC(F)(F)c1cc(-c2cncc(CN3CCOC3=O)c2)ccc1F` [Example 49, 3-[[5-[3-(1,1-Difluoroethyl)-4-fluoro-phenyl]-3-pyridyl]methyl]oxazolidin-2-one] here?
A: Its IC50 is 30 nM.

Q: With `C[C@@H]1CN(Cc2cc(-c3ccc(F)c(OC(F)F)c3)cnc2C(C)(F)F)C(=O)O1` [Example 149, (5R)-3-[[2-(1,1-Difluoroethyl)-5-[3-(difluoromethoxy)-4-fluoro-phenyl]-3-pyridyl]methyl]-5-methyl-oxazolidin-2-one] as the compound, how does the IC50 read?
A: The IC50 was 127 nM.
